Data published in patent publication US9827312B2, “Method for carrying therapeutic substances into cells” (MAGFORCE AG, priority 2005, dated 2017).

Experiments:
Settings in all cases: procedure of example 2
[1] = system: neuroglioma cell line H4; test: Increase in the activity of cytostatics with nanoparticles (Table 1), H4; type: cell-based
Description: (§1) The experiments in vitro were carried out with the cell lines BT20 (breast carcinoma) and WiDr (colon carcinoma). The tumor cells were taken from tumor tissue of a patient and cultivated as described in DE 199 12 798 C1. 2×10^6 cells, respectively, were prepared in a 75 cm^3 cell culture bottle with 25 ml of cell culture medium (RPMI+10% FBS+1.2 ml of pyruvate for WiDr cells, or respectively BME+10% FBS+pyruvate+5 ml of non-essential amino acids+5 ml glutamine for BT20 cells) for testing the efficacy of the cefamandole/nanoparticle mixture. 136 μl of magnetic fluid MFL AS M01 (iron oxide nanoparticle coated with polycondensed N-(2-aminoethyl)-3-(trimethoxysilyl)propylamine, manufacturer: MagForce Nanotechnologies GmbH, Berlin, Germany) (cFe=2 mol/l) and 390 μl of cefamandole solution (stock solution 1 mg/ml in 0.9% NaCl) were added to said cell suspension.
(§2) Corresponding to the experiment procedure according to example 2, the following […] were tested in vitro with the active ingredients listed in table 1: a) glioblastoma human cell line RUSIRS 1; b) breast carcinoma cell lines BT20; c) colon carcinoma cell line WiDR; d) bronchial carcinoma cells NSCLC, e) rectal carcinoma cells and f) prostate carcinoma cell line DU 145.
(§3) In all cases, an increased activity of the cytostatic could be observed. The increase in activity is indicated in parentheses after the respective cytostatic, wherein (+) means an increase of about 5% to 80% and (++) means an increase of 80% to 500%.

[2] = system: rectal carcinoma cells; test: Increase in the activity of cytostatics with nanoparticles (Table 1), rectal carcinoma; type: cell-based
Description: as §1, §2, §3

[3] = system: bronchial carcinoma cells NSCLC; test: Increase in the activity of cytostatics with nanoparticles (Table 1), NSCLC; type: cell-based
Description: as §1, §2, §3

[4] = system: glioblastoma human cell line RUSIRS1; test: Increase in the activity of cytostatics with nanoparticles (Table 1), RUSIRS1; type: cell-based
Description: as §1, §2, §3

[5] = system: colon carcinoma cell line WiDr; test: Increase in the activity of cytostatics with nanoparticles (Table 1), WiDr; type: cell-based, human
Description: as §1, §2, §3

[6] = system: prostate carcinoma cell line DU 145; test: Increase in the activity of cytostatics with nanoparticles (Table 1), DU 145; type: cell-based
Description: as §1, §2, §3

[7] = system: breast carcinoma cell lines BT20; test: Increase in the activity of cytostatics with nanoparticles (Table 1), BT20; type: cell-based, human
Description: as §1, §2, §3

Row | Compound | increase in the activity of cytostatics [1] | increase in the activity of cytostatics [2] | increase in the activity of cytostatics [3] | increase in the activity of cytostatics [4] | increase in the activity of cytostatics [5] | increase in the activity of cytostatics [6] | increase in the activity of cytostatics [7]
1 | O=NN(CCCl)C(=O)NCCCl [carmustine] | (+) ((+) means an increase of about 5% to 80%) | (+) ((+) means an increase of about 5% to 80%) | (++) ((++) means an increase of 80% to 500%) | (+) ((+) means an increase of about 5% to 80%) | (+) ((+) means an increase of about 5% to 80%) | (+) ((+) means an increase of about 5% to 80%) | (+) ((+) means an increase of about 5% to 80%)
2 | CC[C@]1(O)C[C@H]2CN(CCc3c([nH]c4ccccc34)[C@@](C(=O)OC)(c3cc4c(cc3OC)N(C=O)[C@H]3[C@@](O)(C(=O)OC)[C@H](OC(C)=O)[C@]5(CC)C=CCN6CC[C@]43[C@@H]65)C2)C1 [vincristine] | (+) ((+) means an increase of about 5% to 80%) | (++) ((++) means an increase of 80% to 500%) | (++) ((++) means an increase of 80% to 500%) | (+) ((+) means an increase of about 5% to 80%) | (+) ((+) means an increase of about 5% to 80%) | (+) ((+) means an increase of about 5% to 80%) | (++) ((++) means an increase of 80% to 500%)
3 | CO[C@H]1C[C@@H]2CC[C@@H](C)[C@@](O)(O2)C(=O)C(=O)N2CCCC[C@H]2C(=O)O[C@H]([C@H](C)C[C@@H]2CC[C@@H](O)[C@H](OC)C2)CC(=O)[C@H](C)/C=C(\C)[C@@H](O)[C@@H](OC)C(=O)[C@H](C)C[C@H](C)/C=C/C=C/C=C/1C [rapamycin] | (+) ((+) means an increase of about 5% to 80%) | (++) ((++) means an increase of 80% to 500%) | (+) ((+) means an increase of about 5% to 80%) | (+) ((+) means an increase of about 5% to 80%) | (+) ((+) means an increase of about 5% to 80%) | (+) ((+) means an increase of about 5% to 80%) | (++) ((++) means an increase of 80% to 500%)
4 | Nc1nc2c(ncn2COCCO)c(=O)[nH]1 [acyclovir] | (+) ((+) means an increase of about 5% to 80%) | (++) ((++) means an increase of 80% to 500%) | (+) ((+) means an increase of about 5% to 80%) | (+) ((+) means an increase of about 5% to 80%) | (+) ((+) means an increase of about 5% to 80%) | (+) ((+) means an increase of about 5% to 80%) | (+) ((+) means an increase of about 5% to 80%)
5 | Nc1ccn([C@@H]2O[C@H](CO)[C@@H](O)C2(F)F)c(=O)n1 [gemcitabine] | (+) ((+) means an increase of about 5% to 80%) | (+) ((+) means an increase of about 5% to 80%) | (++) ((++) means an increase of 80% to 500%) | (+) ((+) means an increase of about 5% to 80%) | (+) ((+) means an increase of about 5% to 80%) | (+) ((+) means an increase of about 5% to 80%) | (+) ((+) means an increase of about 5% to 80%)
6 | NC[C@H]1O[C@H](O[C@H]2[C@H](O)[C@@H](O[C@H]3O[C@H](CO)[C@@H](O)[C@H](N)[C@H]3O)[C@H](N)C[C@@H]2N)[C@H](N)C[C@@H]1O [tobramycin] | (+) ((+) means an increase of about 5% to 80%) | (+) ((+) means an increase of about 5% to 80%) | (+) ((+) means an increase of about 5% to 80%) | (+) ((+) means an increase of about 5% to 80%) | (+) ((+) means an increase of about 5% to 80%) | (+) ((+) means an increase of about 5% to 80%) | (+) ((+) means an increase of about 5% to 80%)
7 | Cc1ccc(NC(=O)c2ccc(CN3CCN(C)CC3)cc2)cc1Nc1nccc(-c2cccnc2)n1 [imatinib] | (+) ((+) means an increase of about 5% to 80%) | (+) ((+) means an increase of about 5% to 80%) | (+) ((+) means an increase of about 5% to 80%) | (+) ((+) means an increase of about 5% to 80%) | (++) ((++) means an increase of 80% to 500%) | (+) ((+) means an increase of about 5% to 80%) | (+) ((+) means an increase of about 5% to 80%)
8 | CC(C)Cc1ccc(C(C)C(=O)O)cc1 (centres unmarked) [ibuprofen] | (+) ((+) means an increase of about 5% to 80%) | (+) ((+) means an increase of about 5% to 80%) | (+) ((+) means an increase of about 5% to 80%) | (+) ((+) means an increase of about 5% to 80%) | (++) ((++) means an increase of 80% to 500%) | (+) ((+) means an increase of about 5% to 80%) | (+) ((+) means an increase of about 5% to 80%)
9 | Nc1nc(O)c2ncn(COC(CO)CO)c2n1 [ganciclovir] | (+) ((+) means an increase of about 5% to 80%) | (+) ((+) means an increase of about 5% to 80%) | (+) ((+) means an increase of about 5% to 80%) | (++) ((++) means an increase of 80% to 500%) | (+) ((+) means an increase of about 5% to 80%) | (+) ((+) means an increase of about 5% to 80%) | (+) ((+) means an increase of about 5% to 80%)
10 | CC(=O)O[C@H]1C(=O)[C@@]2(C)[C@H]([C@H](OC(=O)c3ccccc3)[C@]3(O)C[C@H](OC(=O)[C@H](O)[C@@H](NC(=O)c4ccccc4)c4ccccc4)C(C)=C1C3(C)C)[C@]1(OC(C)=O)CO[C@@H]1C[C@@H]2O [paclitaxel] | (+) ((+) means an increase of about 5% to 80%) | (+) ((+) means an increase of about 5% to 80%) | (+) ((+) means an increase of about 5% to 80%) | (+) ((+) means an increase of about 5% to 80%) | (+) ((+) means an increase of about 5% to 80%) | (+) ((+) means an increase of about 5% to 80%) | (++) ((++) means an increase of 80% to 500%)
11 | O=C(O)CCCc1ccc(N(CCCl)CCCl)cc1 [chlorambucil] | (++) ((++) means an increase of 80% to 500%) | (+) ((+) means an increase of about 5% to 80%) | (+) ((+) means an increase of about 5% to 80%) | (+) ((+) means an increase of about 5% to 80%) | (++) ((++) means an increase of 80% to 500%) | (+) ((+) means an increase of about 5% to 80%) | (+) ((+) means an increase of about 5% to 80%)
